Measurements as given in patent US20240336657A1, “G-ALPHA-S PEPTIDE INHIBITORS AND USES THEREOF” (The Regents of the University of California, priority 2021, published 2024).
Positions of bridges follow the written chain, without caps; N, C: chain ends. Non-standard residues stand in square brackets, D forms with d. Residues, ends and D or L forms follow the SMILES beside them.

Molecular target: T1, Gαi1/Gβγ (Homo sapiens, UniProt P63096)
T1 construct: expressed in transfected cells; host or cells: HEK293 cells
Assay: BRET2 based Gα Gβγ interaction assay in HEK293 cells (M2R, acetylcholine)
Type: cell-based
Conditions: pretreated 25 μM, 16 hours, 100 nM acetylcholine
Text: We next tested GD20-F10L in HEK 293 cells overexpressing both β2AR and Gαs/Gβγ. Rluc8 was inserted within a flexible loop region between the αB-αC helices of Gαs (FIG. 23J) and GFP2 was inserted at the N-terminus of Gγ2 to capture Gαβγ heterotrimer interaction. A decrease in the bioluminescence resonance energy transfer (BRET2) signal between labeled G protein subunits can detect Gαβγ dissociation (FIG. 21C) in live cells (Olsen et al., 2020). We examined Gαβγ trimer dissociation elicited by the GPCR agonist at various concentrations of cyclic peptides by monitoring the net BRET2 signal. In cells that were transiently transfected with a Gαs-coupled β2-adrenergic receptor (β2AR), GαsShort_Rluc8, […], and Gγ-GFP2, ISO application stimulated a basal net BRET response. […] This effect was GD20-F10L dose dependent (FIGS. 21D-21E). […] To assess the specificity of GD20-F10L at the G protein level, we tested it against the Gαi/Gβγ interaction. […]
8 hours after plating in 96-well assay plates, media was replaced with 100 μL of cyclic peptide dilutions in DMEM with 1% dialyzed FBS. […] Plates were then read in a TECAN Spark 20 M plate reader with 395 nm (RLuc8-coelenterazine 400a) and 510 nm (GFP2) emission filters, at integration times of 1 s per well. Plates were read serially six times, and measurements from the fourth read were used in all analyses. […]

T1 sequence (P63096 whole entry): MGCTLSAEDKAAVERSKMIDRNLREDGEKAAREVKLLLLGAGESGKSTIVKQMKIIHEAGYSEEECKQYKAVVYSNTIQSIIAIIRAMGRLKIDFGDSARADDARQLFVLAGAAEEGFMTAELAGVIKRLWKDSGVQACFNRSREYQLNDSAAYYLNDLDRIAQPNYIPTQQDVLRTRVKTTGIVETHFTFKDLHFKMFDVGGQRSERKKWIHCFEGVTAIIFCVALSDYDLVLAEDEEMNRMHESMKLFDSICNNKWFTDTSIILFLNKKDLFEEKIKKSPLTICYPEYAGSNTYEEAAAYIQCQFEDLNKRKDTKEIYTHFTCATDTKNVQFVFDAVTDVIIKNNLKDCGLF

CC[C@H](C)[C@@H]1NC(=O)[C@H](CC(C)C)NC(=O)[C@@H](Cc2ccc(O)cc2)NC(=O)CSC[C@@H](C(=O)NCC(N)=O)NC(=O)[C@@H]2CCCN2C(=O)[C@H](CC(C)C)NC(=O)[C@H](CC(N)=O)NC(=O)[C@H](CC(C)C)NC(=O)[C@H](C)NC(=O)[C@H](Cc2c[nH]c3ccccc23)NC(=O)[C@H](CCC(N)=O)NC(=O)[C@H](CCCNC(=N)N)NC(=O)[C@H](Cc2ccccc2)NC(=O)[C@H]([C@@H](C)O)NC1=O [GD20-F10L] ({CH2CO}-[dY]LITFRQWALNLPCG-NH2; thioether N-14)
net BRET2 signal change between Gαi and Gβγ after acetylcholine: did not induce a net BRET2 signal change
